# Calls of active or inactive are those of the source. No cut-off for these calls is given here.
# Legend:
# [1] = test system: Escherichia coli; assay: Synergistic antibacterial activity against multi-drug resistant Escherichia coli clinical isolate 1 assessed as inhibition of bacterial growth in presence of polymyxin B by checkerboard assay; format: functional
# [2] = test system: Acinetobacter baumannii; assay: Antibacterial activity against multi-drug resistant Acinetobacter baumannii clinical isolate 51 assessed as inhibition of bacterial growth by CLSI protocol based method; format: functional
# [3] = test system: Acinetobacter baumannii; assay: Synergistic antibacterial activity against multi-drug resistant Acinetobacter baumannii clinical isolate 5 assessed as fractional inhibitory concentration index in presence of polymyxin B by checkerboard assay; format: functional
# [4] = test system: Acinetobacter baumannii; assay: Synergistic antibacterial activity against multi-drug resistant Acinetobacter baumannii clinical isolate 14 assessed as inhibition of bacterial growth by measuring polymyxin B MIC by checkerboard assay; format: functional
# [5] = test system: Escherichia coli; assay: Synergistic antibacterial activity against multi-drug resistant Escherichia coli clinical isolate 1 assessed as fractional inhibitory concentration index in presence of amikacin by checkerboard assay; format: functional
# [6] = test system: Acinetobacter baumannii; assay: Synergistic antibacterial activity against multi-drug resistant Acinetobacter baumannii clinical isolate 1 assessed as fractional inhibitory concentration index in presence of polymyxin B by checkerboard assay; format: functional
# [7] = test system: Escherichia coli; assay: Antibacterial activity against multi-drug resistant Escherichia coli clinical isolate 1 assessed as inhibition of bacterial growth by CLSI protocol based method; format: functional
# [8] = test system: Escherichia coli; assay: Antibacterial activity against Escherichia coli ATCC 25922 assessed as inhibition of bacterial growth by measuring decrease in bacterial count at 6.25 to 50 microg/ml measured after 12 hrs by time-kill kinetics analysis; format: functional; details: dose 6.25-50 µg/ml
# [9] = test system: Acinetobacter baumannii; assay: Synergistic antibacterial activity against multi-drug resistant Acinetobacter baumannii clinical isolate 1 assessed as fractional inhibitory concentration index in presence of amikacin by checkerboard assay; format: functional
# [10] = test system: Acinetobacter baumannii; assay: Synergistic antibacterial activity against Acinetobacter baumannii ATCC 19606 assessed as fractional inhibitory concentration index in presence of polymyxin B by checkerboard assay; format: functional
# [11] = test system: Acinetobacter baumannii; assay: Synergistic antibacterial activity against multi-drug resistant Acinetobacter baumannii clinical isolate 5 assessed as inhibition of bacterial growth in presence of polymyxin B by checkerboard assay; format: functional
# [12] = test system: Pseudomonas aeruginosa; assay: Antibacterial activity Pseudomonas aeruginosa PAO1 assessed as inhibition of bacterial growth by CLSI protocol based method; format: functional
# [13] = test system: Escherichia coli; assay: Synergistic antibacterial activity against Escherichia coli ATCC 25922 assessed as fractional inhibitory concentration index in presence of gentamycin by checkerboard assay; format: functional
# [14] = test system: Escherichia coli; assay: Synergistic antibacterial activity against Escherichia coli ATCC 25922 assessed as inhibition of bacterial growth in presence of polymyxin B by checkerboard assay; format: functional
# [15] = test system: Escherichia coli; assay: Synergistic antibacterial activity against Escherichia coli ATCC 25922 assessed as inhibition of bacterial growth by measuring polymyxin B MIC by checkerboard assay; format: functional
# [16] = test system: Escherichia coli; assay: Synergistic antibacterial activity against multi-drug resistant Escherichia coli clinical isolate 1 assessed as inhibition of bacterial growth by measuring polymyxin B MIC by checkerboard assay; format: functional
# [17] = test system: Acinetobacter baumannii; assay: Antibacterial activity against multi-drug resistant Acinetobacter baumannii clinical isolate 4 assessed as inhibition of bacterial growth by CLSI protocol based method; format: functional
# [18] = test system: Acinetobacter baumannii; assay: Antibacterial activity against multi-drug resistant Acinetobacter baumannii clinical isolate 1 assessed as inhibition of bacterial growth by CLSI protocol based method; format: functional
# [19] = test system: Acinetobacter baumannii; assay: Synergistic antibacterial activity against multi-drug resistant Acinetobacter baumannii clinical isolate 14 assessed as inhibition of bacterial growth in presence of polymyxin B by checkerboard assay; format: functional
# [20] = test system: Acinetobacter baumannii; assay: Synergistic antibacterial activity against multi-drug resistant Acinetobacter baumannii clinical isolate 43 assessed as fractional inhibitory concentration index in presence of amikacin by checkerboard assay; format: functional
# [21] = test system: Pseudomonas aeruginosa; assay: Synergistic antibacterial activity against Pseudomonas aeruginosa assessed as inhibition of bacterial growth in presence of aminoglycoside by checkerboard assay; format: functional, organism-based
# [22] = test system: Acinetobacter baumannii; assay: Synergistic antibacterial activity against multi-drug resistant Acinetobacter baumannii clinical isolate 5 assessed as fractional inhibitory concentration index in presence of gentamycin by checkerboard assay; format: functional
# [23] = test system: Escherichia coli; assay: Synergistic antibacterial activity against multi-drug resistant Escherichia coli clinical isolate 1 assessed as fractional inhibitory concentration index in presence of gentamycin by checkerboard assay; format: functional
# [24] = test system: Escherichia coli; assay: Synergistic antibacterial activity against Escherichia coli ATCC 35218 assessed as fractional inhibitory concentration index in presence of amikacin by checkerboard assay; format: functional
# [25] = test system: Acinetobacter baumannii; assay: Synergistic antibacterial activity against multi-drug resistant Acinetobacter baumannii clinical isolate 43 assessed as fractional inhibitory concentration index in presence of polymyxin B by checkerboard assay; format: functional
# [26] = test system: Acinetobacter baumannii; assay: Synergistic antibacterial activity against multi-drug resistant Acinetobacter baumannii clinical isolate 43 assessed as inhibition of bacterial growth in presence of polymyxin B by checkerboard assay; format: functional
# [27] = test system: Acinetobacter baumannii; assay: Synergistic antibacterial activity against multi-drug resistant Acinetobacter baumannii clinical isolate 5 assessed as inhibition of bacterial growth by measuring polymyxin B MIC by checkerboard assay; format: functional
# [28] = test system: Klebsiella pneumoniae; assay: Synergistic antibacterial activity against Klebsiella pneumoniae assessed as inhibition of bacterial growth in presence of polymyxin B by checkerboard assay; format: functional, organism-based
# [29] = test system: Escherichia coli; assay: Synergistic antibacterial activity against Escherichia coli CG-4 expressing MCR-1 and NDM-1 assessed as fractional inhibitory concentration index in presence of […] by checkerboard assay; format: functional
# [30] = test system: Acinetobacter baumannii; assay: Antibacterial activity against multi-drug resistant Acinetobacter baumannii clinical isolate 43 assessed as inhibition of bacterial growth by CLSI protocol based method; format: functional
# [31] = test system: Acinetobacter baumannii; assay: Antibacterial activity against Acinetobacter baumannii ATCC 19606 assessed as inhibition of bacterial growth by CLSI protocol based method; format: functional
# [32] = test system: Acinetobacter baumannii; assay: Synergistic antibacterial activity against multi-drug resistant Acinetobacter baumannii clinical isolate 5 assessed as fractional inhibitory concentration index in presence of amikacin by checkerboard assay; format: functional
# [33] = test system: Acinetobacter baumannii; assay: Antibacterial activity against multi-drug resistant Acinetobacter baumannii clinical isolate 14 assessed as inhibition of bacterial growth by CLSI protocol based method; format: functional
# [34] = test system: Klebsiella pneumoniae; assay: Antibacterial activity against Klebsiella pneumoniae BAA ATCC 1706 assessed as inhibition of bacterial growth by CLSI protocol based method; format: functional
# [35] = test system: Escherichia coli; assay: Synergistic antibacterial activity against multi-drug resistant Escherichia coli clinical isolate 1 assessed as fractional inhibitory concentration index in presence of polymyxin B by checkerboard assay; format: functional
# [36] = test system: Escherichia coli; assay: Synergistic antibacterial activity against Escherichia coli CG-4 expressing MCR-1 and NDM-1 assessed as fractional inhibitory concentration index in presence of gentamycin by checkerboard assay; format: functional
# [37] = test system: Escherichia coli; assay: Synergistic antibacterial activity against Escherichia coli ATCC 25922 assessed as fractional inhibitory concentration index in presence of polymyxin B by checkerboard assay; format: functional
# [38] = test system: Pseudomonas aeruginosa; assay: Synergistic antibacterial activity against Pseudomonas aeruginosa assessed as inhibition of bacterial growth in presence of polymyxin B by checkerboard assay; format: functional, organism-based
# [39] = test system: Acinetobacter baumannii; assay: Synergistic antibacterial activity against multi-drug resistant Acinetobacter baumannii clinical isolate 14 assessed as fractional inhibitory concentration index in presence of amikacin by checkerboard assay; format: functional
# [40] = test system: Escherichia coli; assay: Synergistic antibacterial activity against Escherichia coli ATCC 35218 assessed as fractional inhibitory concentration index in presence of gentamycin by checkerboard assay; format: functional
# [41] = test system: Escherichia coli; assay: Synergistic antibacterial activity against Escherichia coli ATCC 25922 assessed as fractional inhibitory concentration index in presence of amikacin by checkerboard assay; format: functional
# [42] = test system: Acinetobacter baumannii; assay: Antibacterial activity against multi-drug resistant Acinetobacter baumannii clinical isolate 2 assessed as inhibition of bacterial growth by CLSI protocol based method; format: functional
compound,measurement,setting,value
CCN(CC)c1ccc(/C=C/c2cc(C(C)(C)C)[o+]c(C(C)(C)C)c2)cc1.O=S(=O)([O-])C(F)(F)F,MIC,[1],3.12 µg/mL
same,MIC,[2],12.5 µg/mL
same,fractional inhibitory concentration index (FICI),[3],0.188
same,MIC,[4],0.006 µg/mL
same,fractional inhibitory concentration index (FICI),[5],0.125
same,fractional inhibitory concentration index (FICI),[6],<0.064
same,MIC,[7],≥ 100 µg/mL
same,Activity,[8],<6 log10CFU/ml
same,fractional inhibitory concentration index (FICI),[9],0.125
same,fractional inhibitory concentration index (FICI),[10],0.188
same,MIC,[11],1.56 µg/mL
same,MIC,[12],> 100 µg/mL
same,fractional inhibitory concentration index (FICI),[13],0.125
same,MIC,[14],1.56 µg/mL
same,MIC,[15],7.8 10^-4 ug/ml
same,MIC,[16],0.2 µg/mL
same,MIC,[17],12.5 µg/mL
same,MIC,[18],25 µg/mL
same,MIC,[19],1.56 µg/mL
same,fractional inhibitory concentration index (FICI),[20],0.125
same,Activity,[21],inactive
same,fractional inhibitory concentration index (FICI),[22],0.125
same,fractional inhibitory concentration index (FICI),[23],0.125
same,fractional inhibitory concentration index (FICI),[24],0.125
same,fractional inhibitory concentration index (FICI),[25],0.5
same,MIC,[26],6.25 µg/mL
same,MIC,[27],0.003 µg/mL
same,Activity,[28],inactive
same,fractional inhibitory concentration index (FICI),[29],0.125
same,MIC,[30],12.5 µg/mL
same,MIC,[31],12.5 µg/mL
same,fractional inhibitory concentration index (FICI),[32],0.125
same,MIC,[33],12.5 µg/mL
same,MIC,[34],12.5 µg/mL
same,fractional inhibitory concentration index (FICI),[35],0.031
same,fractional inhibitory concentration index (FICI),[36],0.125
same,fractional inhibitory concentration index (FICI),[37],0.266
same,Activity,[38],inactive
same,fractional inhibitory concentration index (FICI),[39],0.125
same,fractional inhibitory concentration index (FICI),[40],0.125
same,fractional inhibitory concentration index (FICI),[41],0.125
same,MIC,[42],6.25 µg/mL
